Columns and labels:
Assay type in all cases: in vivo
Ustilago nuda [1] = experiment: Example B-5: comparison test with prior art compound B, activity against Ustilago nuda on barley; settings: 10 g active ingredient per 100 kg seed; for % Control / % infected heads: barley seed treatment; for % Control: relative to untreated; for % infected heads: untreated 13
Description: (§1) After application of the active ingredient formulated as a flowable concentrate for seed treatment onto U. nuda-infected seeds of winterbarley the seeds are sown in trays filled with field soil. The trays are transferred to a growth room and kept there for 2 days at 20° C. and then for 2 weeks at 2° C. After this period the trial is transferred to a greenhouse where a temperature of 15° C. and a 14 hr light period is provided until flowering. The following assessments are made: number of infected heads. Each number is determined for 200 seeds per treatment (2 replicates a 100 seeds). The activity against Ustilago nuda on barley of the racemic compound of formula Ia according to the invention was compared with racemic compound B, which is described as compound no. 2.69 on pages 7, table 2, and page 16, table 7, of WO 03/074491. The method used to compare the activity is described under example B-4 above.

Ustilago nuda [2] = experiment: Example B-6: comparison test with prior art compound C, activity against Ustilago nuda on barley; settings: 10 g active ingredient per 100 kg seed; for % Control / % infected heads: barley seed treatment; for % Control: relative to untreated; for % infected heads: untreated 13
Description: as §1, with “C (trans/cis-ratio: 10:1),” for “B,”, “2.40” for “2.69”, “pages 6 and” for “pages”, “2,” for “2, and page 16, table 7,”

Ustilago nuda [3] = experiment: Example B-4: activity against Ustilago nuda on barley, seed treatment; settings: U. nuda-infected winterbarley seeds; for % Control: relative to untreated; for % infected heads: untreated 23.1
Description: After application of the active ingredient formulated as a flowable concentrate for seed treatment onto U. nuda-infected seeds of winterbarley the seeds are sown in trays filled with field soil. The trays are transferred to a growth room and kept there for 2 days at 20° C. and then for 2 weeks at 2° C. After this period the trial is transferred to a greenhouse where a temperature of 15° C. and a 14 hr light period is provided until flowering. The following assessments are made: number of infected heads. Each number is determined for 200 seeds per treatment (2 replicates a 100 seeds).

Pyrenophora graminea = experiment: Example B-3: activity against Pyrenophora graminea on barley, seed treatment; settings: P. graminea-infected winterbarley seeds, 10 g/100 kg seed
Description: After application of the active ingredient formulated as a flowable concentrate for seed treatment onto P. graminea-infected seeds of winterbarley the seeds are sown in trays filled with field soil. The trays are kept in a growth room for 3 weeks at 4° C. After this period the trial is transferred to a greenhouse where a temperature of 12° C. and a 14 hr light period is provided. The following assessments are made: number of infected plants. Each number is determined for 200 seeds per treatment (2 replicates a 100 seeds).

Gäumannomyces graminis = experiment: Example B-1: activity against Gäumannomyces graminis on wheat, seed treatment; settings: winterwheat seed treatment; for % root browning: inoculated field soil, 5 weeks at 17° C., untreated 50; for Control: relative to untreated
Description: After application of the active ingredient formulated as a flowable concentrate for seed treatment onto seeds of winterwheat the seeds are sown in trays filled with field soil. The field soil has been inoculated artificially before sowing with Gäumannomyces graminis by thoroughly mixing mycelium and soil. The trial is kept in a growth room for 5 weeks at 17° C. and a 14 hr light period. The following assessments are made: % root browning. Each number is determined for 30 seeds per treatment (3 replicates a 10 seeds).

Microdochium nivale = experiment: Example B-2: activity against Microdochium nivale on wheat, seed treatment; settings: M. nivale-infected winterwheat seeds, 10 g/100 kg seed
Description: After application of the active ingredient formulated as a flowable concentrate for seed treatment onto M. nivale-infected seeds of winterwheat the seeds are sown in trays filled with planting soil. The trial is kept for 4 weeks in a growth room at 4° C. and darkness. Then the temperature is increased to 15° C. and a 12 hr light period is provided. After development of the primary leaf plants are kept at 10° C. and high humidity until the trial is finished. The following assessments are made: number of infected plants. Each number is determined for 100 seeds per treatment (2 replicates a 50 seeds).

Compound	% Control (Ustilago nuda [1]) [%]	% infected heads (Ustilago nuda [1]) [%]	% Control (Ustilago nuda [2]) [%]	% infected heads (Ustilago nuda [2]) [%]	fungicidal action against Ustilago nuda on barley compared with racemic compound B (Ustilago nuda [1])	fungicidal action against Ustilago nuda on barley compared with racemic compound C (Ustilago nuda [2])	% Control (Ustilago nuda [3]; 2.5 g/100 kg seed) [%]	% infected heads (Ustilago nuda [3]; 2.5 g/100 kg seed) [%]	% Control (Ustilago nuda [3]; 5 g/100 kg seed) [%]	% infected heads (Ustilago nuda [3]; 5 g/100 kg seed) [%]	Control (Pyrenophora graminea; relative to untreated)	% infected plants (Pyrenophora graminea; untreated 54) [%]	% root browning (Gäumannomyces graminis; 10 g/100 kg seed) [%]	Control (Gäumannomyces graminis; 10 g/100 kg seed)	% root browning (Gäumannomyces graminis; 33 g/100 kg seed) [%]	Control (Gäumannomyces graminis; 33 g/100 kg seed)	Control (Microdochium nivale; relative to untreated)	% infected plants (Microdochium nivale; untreated 38) [%]
Cn1cc(C(=O)Nc2ccccc2[C@@H]2C[C@H]2c2ccc(Cl)cc2)c(C(F)F)n1 (racemic) [Racemic compound B, reference compound]	9	11.9	–	–	–	–	–	–	–	–	–	–	–	–	–	–	–	–
Cn1cc(C(=O)Nc2ccccc2C2CC2C2CCCC2)c(C(F)F)n1 (racemic) [Racemic compound C, reference compound]	–	–	11	11.6	–	–	–	–	–	–	–	–	–	–	–	–	–	–
Cn1cc(C(=O)Nc2ccccc2[C@@H]2C[C@H]2C2CC2)c(C(F)F)n1 (racemic) [Racemic compound of formula Ia]	100	0	100	0	substantially better fungicidal action	substantially better fungicidal action	100	0	100	0	98.1	1	28	44	20	60	86.8	5

Reference: patent US8198215B2, “Methods for protecting seeds” (Sygenta Crop Protection LLC, priority 2005, dated 2012)
